These results are taken from a melting point compilation (Tetko et al.; mined from patent text by program, amines drawn as free bases though some values may be those of a salt).

SMILES strings stand for the structures. Some results are limits rather than exact numbers.

The term melting point denotes the temperature, or range, at which the solid turns liquid.

For `CCCOc1ncc(N(C)C)cc1-c1nc2c(CCC)nn(C)c2c(=O)[nH]1`, the melting point was 162 °C. For the molecule `COc1ccc(C2=NNC(=O)[C@H]3CC=CC[C@@H]23)cc1OC` (relative stereo), the melting point was 173 to 174 °C.

`Oc1ccc(C2(c3ccc(O)c(F)c3)c3ccccc3-c3ccccc32)cc1F`: the melting point fell in the range of 219 to 221 °C. `CCCCc1oc2ccccc2c1C(=O)c1ccc2c(Br)c(OC(Cc3ccccc3)C(=O)O)ccc2c1` (stereo unspecified) registered a melting point of 165 to 167 °C. On to `ClC(Cl)(Cl)c1cc(-c2ccccc2)c2ccc3c(-c4ccccc4)cc(C(Cl)(Cl)Cl)nc3c2n1`, for which the melting point lay within 180 to 184 °C. With `Cn1cc(CC2CCN(CCN3c4cccc5cccc(c45)S3(=O)=O)CC2)c2cc(F)ccc21`, the melting point was in the range of 150 to 152 °C. As to `CC[C@@]1(CC(=O)N[C@@H](C)c2ccccc2)CCCN2CCc3c([nH]c4ccccc34)[C@@H]21`, the melting point lay in the range of 188 to 192 °C. On to `CCn1c(C)c(C2(c3c(-c4ccc(OC)cc4)nc4sccn34)OC(=O)c3cccnc32)c2ccccc21` (stereo unspecified), for which the melting point lay in the range of 115 to 118 °C. Regarding `CNc1cc2c(cc1C)c(=O)c(C(=O)O)cn2-c1cc(N)c(F)cc1F`, the melting point was > 280 °C. In turn, `FC(F)(F)c1cccc(Nc2nc3ccccc3o2)c1` gave a melting point of 193 to 194 °C. For `O=P(O)(O)CCCCC(F)(F)C(F)(F)C(F)(F)C(F)(F)F`, the melting point is 123 to 124 °C.

`Cc1c(=O)o[n-][n+]1CCSC12CC3CC(CC(C3)C1)C2` had a melting point of 92 to 93 °C. Turning to `CS(=O)(=O)c1ccc(Oc2ccc(OCC#N)cc2)cc1`, the melting point lay within 114 to 116 °C. Molecule `CC(C)(C)c1ccc(C(=O)Nc2cn3nc(-n4cnc(CO)c4)ccc3n2)cc1` yielded a melting point of 298 to 301 °C. With `c1ccc(CSc2ncnc3ccccc23)nc1`, the melting point fell in the range of 64.9 to 66.2 °C. Regarding `CCOC(=O)c1cccc(OP(=O)(CCN2CCCNc3c2c(=O)c3=O)Oc2cccc(C(=O)OCC)c2)c1`, the melting point lay in the range of 116 to 117 °C. Take `COc1cc(O)c2c(=O)c(OC)c(-c3ccc(OC(C)=O)c(OC)c3)oc2c1`: the melting point was in the range of 168 to 169 °C. The molecule `CCOC(=O)C(=O)N(C)c1cccccc1=O` showed a melting point of 70 to 71 °C.

On to `CN1CCN(CC2COc3cc4ncnc(Nc5cccc(Br)c5)c4cc3O2)CC1` (stereo unspecified), for which the melting point was 182 to 189 °C.

Molecule `Cc1cc(OCC(F)(F)F)c(NC(=O)CBr)c(OCC(F)(F)F)n1` displayed a melting point of 153 to 154 °C. Turning to `CON=CCN1C(=O)C(NC(=O)c2cc3ccccc3[nH]2)N=C(c2ccccc2)c2ccccc21` (racemic), the melting point was in the range of 169 to 174 °C. The same measure for `Clc1cc(Cl)c2nc[nH]c2n1`: 263 °C; for `NNC1=NS(=O)(=O)c2cc(Cl)ccc21`: 277 °C; for `CN1C(=O)CN=C(c2ccccn2)c2cc(C#C[Si](C)(C)C)ccc21`: 194 to 195 °C.

Take `O=C1CCN2C(=O)c3cccc(-n4c(=O)[nH]c5cnccc5c4=O)c3C2C1` (stereo unspecified): the melting point worked out at 230 °C.

For `CC(=O)Nc1cc(C(=O)O)cc(C(F)(F)F)c1`, the melting point fell in the range of 194 to 220 °C. On to `Cc1cc(-n2cc(I)nc2C)ccc1[N+](=O)[O-]`, for which the melting point fell in the range of 146 to 148 °C. `COc1nc(C)c(C)nc1NC(=O)N1CCN(c2cc(F)cc(F)c2)CC1` had a melting point of 153 to 154 °C.

Consider `Cc1c(NC(=O)NCCO)c(C)c2c(c1-c1ccccc1)OCC2c1ccc(C(C)C)cc1` (stereo unspecified), for which the melting point was 152 to 155 °C. As for `Nc1c(CCO)cccc1C(=O)c1ccc(Cl)cc1`, the melting point lay within 111 to 126 °C. Then `Oc1cccc(C2CCCN2Cc2ccccc2)c1` (stereo unspecified), with 113 to 115 °C. Take `CSNC(=O)c1c(Cl)cccc1[Si](C)(C)C`: the melting point was in the range of 92 to 94 °C. Then `CC(Oc1ccc(Cl)c(Cl)c1)c1nnc(N)s1` (stereo unspecified), with 136 to 138 °C. The same measure for `O=C(OCC1CCCO1)C1Oc2ccccc2Cc2ccccc2O1` (stereo unspecified): 83 to 85 °C. Then `Oc1cccc2c(Oc3ccccc3)cccc12`, with 82 to 83 °C. `Cn1c(C(N)=O)c(-c2ccc(N)cc2)c2ccccc21` showed a melting point of 96 to 98 °C. `COc1ccc2[nH]cc(C3=C(Cl)C(=O)C=C(Cl)C3=O)c2c1` displayed a melting point of 195 to 196 °C. Consider `CCCOc1cc(/C=C/C(=O)OCC)n(Cc2ccccc2)n1`, for which the melting point lay within 56 to 57 °C. The same measure for `CN1CCN(c2ncc(-c3cnc4c(c3)N(Cc3c(F)ccc(F)c3Cl)CCN4)cn2)CC1`: 194 to 195 °C; for `CCCN(CCC)C1Cc2c[nH]c3ccc(C(=O)c4ccccc4)c(c23)C1` (stereo unspecified): 150 °C. The molecule `CCc1cc(CC)c(-c2c(O)c(C)nn(C)c2=O)c(CC)c1Br` yielded a melting point of 225 to 226 °C. `Cc1ccnc2c1N=C(C#N)c1cccnc1N2C1CC1`: the melting point was 192 to 193 °C. `COc1cc2cccnc2c(N2CCN([C@H]3CC[C@@H](c4cn(C)c5ccc(C#N)cc54)CC3)CC2)n1` registered a melting point of 230 to 233 °C.

Molecule `CN1CCSC1=NC(=O)CCC(=O)N=C1SCCN1C` had a melting point of 181 to 183 °C.

Turning to `COc1ccc(-c2c(/C=C/C(=O)O)ccc3cc(OC)ccc23)cc1`, the melting point is 248 to 249 °C.

`CN(c1ccncc1[N+](=O)[O-])n1cccc1C=O`: the melting point was in the range of 101 to 107 °C. In the case of `Fc1cccc(C(c2ccc3nccnc3c2)n2ccnc2)c1` (stereo unspecified), the melting point worked out at 110 °C. `COc1ccc(C(O)CNC(C)CCc2ccccc2)cc1C(N)=O` (stereo unspecified): the melting point fell in the range of 110 to 148 °C. Then `Nc1ccc2c(c1)CN(c1c(F)cc3c(=O)c(C(=O)O)cn(-c4ccc(F)cc4F)c3c1F)C2`, with > 300 °C; and `O=C(Cc1ccccc1)Nc1ccccc1SCc1ccc(Cl)cc1`, with 100 to 101 °C; and `CNC(=O)c1cc2nc(C(F)(F)F)ccc2c(C)c1NC(=O)c1cc(C(F)(F)F)nn1-c1ncccc1Cl`, with 227 to 230 °C. As for `CCNc1ncccc1-c1cscc1-c1cccnc1F`, the melting point lay in the range of 127 to 129 °C. The same measure for `Cn1c(=O)c2nc(-c3ccc(/C=C/C(=O)O)cc3)[nH]c2n(Cc2ccc(C#N)cc2)c1=O`: > 350 °C; for `COc1c(C)cc(C)cc1CCC(=O)O`: 74 to 75 °C.

As to `Brc1cccc2c1[nH]c1c2ccc2cc[nH]c21`, the melting point is > 250 °C. Consider `CN1C(=O)C(C(=O)Nc2ccc(C(F)(F)F)cc2)S(=O)(=O)c2cc(F)ccc21` (stereo unspecified), for which the melting point lay in the range of 146 to 148 °C. Molecule `CC(NC(N)=C[N+](=O)[O-])C1=CCC=CC1` (stereo unspecified) displayed a melting point of 120 to 125 °C. `O=c1nc(-c2ccccn2)sc2cc(Cl)ccc12`: the melting point fell in the range of 245 to 246 °C.

For the molecule `COC(=O)NC1CCc2ccsc2C1` (stereo unspecified), the melting point lay in the range of 156 to 157 °C. Take `O=C(O)c1cnccc1C(=O)c1ccc(F)cc1`: the melting point fell in the range of 231 to 232 °C.

Molecule `CC(C)CC(Br)C(=O)N1CCC[C@H]1CO` (stereo partly specified) returned a melting point of 79 to 82 °C. Molecule `O=C(Cl)N1c2ccccc2C=Cc2ccccc21` showed a melting point of 145 to 150 °C. The same measure for `COc1ccc(CS[C@H]2C[C@@H](C(N)=O)N(C)C2)cc1`: 113 to 114 °C; for `O=C1CCC(c2cc(F)c(F)c(F)c2)CC1`: 124 °C; for `CCOC(=O)c1c(C)nc2c(cnn2CC)c1NCCC(C)O` (stereo unspecified): 94.5 to 96.5 °C. Turning to `N#CCC(=O)Nc1ccc(S(=O)C(F)(F)F)cc1` (stereo unspecified), the melting point lay within 164 to 165 °C.

As to `Cc1nc(-c2cnc(Cc3ccccc3)o2)sc1C(=O)NCc1ccccc1`, the melting point is 141 to 142 °C.

As for `COC(=O)c1cc2cc(C(=O)c3cccc(C(C)C(=O)OC)c3)sc2s1` (stereo unspecified), the melting point was determined as 122 °C. For the molecule `C=Cc1ccc(C(=O)OC)[nH]1`, the melting point fell in the range of 91 to 93 °C. Then `CCOC(=O)C[C@H]1O[C@H](c2ccc(O)cc2OC)c2cc(Cl)ccc2N(CC(C)(C)C)C1=O` (relative stereo), with 197 to 199 °C. Take `CC(C)C[C@H](CN)CC(=O)O`: the melting point lay within 192 to 196 °C.

Take `Cc1oc(-c2ccccc2)nc1COc1ccc(COc2cncc(CO)c2)cc1`: the melting point lay in the range of 128 to 130 °C. Then `CNC(=O)NC1=NC(=CCC(=O)Nc2ccc(Cl)cc2)CS1`, with 203 to 205 °C; and `CCCCCCCCCCCCCCCCC1CC(Cn2cncn2)(c2ccc(Cl)cc2)N(C)O1` (stereo unspecified), with 100 to 102 °C. The molecule `O=S(CC(O)CCl)c1ncc(Cl)cn1` (stereo unspecified) displayed a melting point of 170 °C. For the molecule `Cc1ccnn1-c1ccc(NC(=O)c2ccc(Cl)cc2)cc1`, the melting point lay within 189 to 191 °C. Turning to `CC(C)(C)OC(=O)N1C[C@H]2[C@@H](C1)C(c1ccccc1)(c1ccccc1)CC[C@@H]2O`, the melting point is 190 °C. Then `Cc1csc2c(CSc3nc4ccccc4[nH]3)nccc12`, with 160 to 162 °C.

On to `COC1CCC(OS(C)(=O)=O)C(CN=[N+]=[N-])O1` (stereo unspecified), for which the melting point fell in the range of 54 to 56 °C. `c1ccc2c(c1)cnn2N1CCNCC1` gave a melting point of 153 °C.

`CCCCC(=O)N(CCOC)Cc1ccc(-c2ccccc2-c2nnn[nH]2)cc1` displayed a melting point of 120 to 122 °C. Take `NS(=O)(=O)c1ccc(C2=NNC(C(=O)O)C2)cc1` (stereo unspecified): the melting point fell in the range of 224 to 226 °C.

`CSc1nc(N)c([N+](=O)[O-])c(N2CCS(=O)CC2)n1` had a melting point of 239 to 242 °C. `Oc1ccc(Oc2ncc(Cl)cc2F)cc1` returned a melting point of 90 to 92 °C. The same measure for `Cc1nc2c(n1C)CC(C(=O)N(C)C)CC2=O` (stereo unspecified): 190 to 194 °C; for `Cc1oc(-c2ccccc2)nc1CSc1ccc(S(=O)(=O)Nc2ccccc2C(=O)O)cc1`: 182 to 184 °C; for `CC(C)(C)OC(=O)c1ccc(C=Cc2ccc(C(=O)OC(C)(C)C)cc2)cc1`: 126 to 127 °C. The same measure for `COC(=O)c1ccc(-c2noc(C)n2)s1`: 134 to 136 °C; for `CCOP(=O)(Cc1nnc2c(=O)[nH]c3cc(C(F)(F)F)c([N+](=O)[O-])cc3n12)OCC`: 222 to 228 °C. The same measure for `CNCC(=O)NCC1Cc2cc(C)c3[nH]c(=O)ccc3c2O1` (stereo unspecified): 188 to 191 °C; for `CCCC(=O)OCc1ccc2oc(=O)c(C(=O)Oc3cncc(Cl)c3)cc2c1`: 146 to 148 °C.
